In experiment [1] the test system is 3NACP (Clostridium perfringens NA). It is filed as binding. The note with it: 0.3 mU/mL 3NACP.
Experiment [2] shares this test system. In kind it is biochemical. The settings on record: 3 mU/mL 3NACP; 1 μM inhibitor vs without.
A further experiment has as its system H3N2 NA. In kind it is biochemical, influenza H3N2.

SMILES strings stand for the structures. Read-outs that look alike come from different tables or passages of the source.

For `CCOC(=O)C1=C[C@@H](OC(CC)CC)[C@H](NC(C)=O)[C@@H](N)C1` [Oseltamivir], the “adsorption response of GCE-H3 to 3NACP (Normalized RCT) with inhibitor” value was “lower adsorption response” in experiment [1] (0.1 μM inhibitor, vs 0 μM) and “further decrease in response” in experiment [1] (1 μM inhibitor). Further, the “impedimetric response of AuE-H3 to 3NACP (1/Normalized RCT) with inhibitor” value in experiment [2] is on record as “decrease in response”. The “inhibition effect on enzymatic response of AuE-H3 to H3N2 NA (normalized RCT)” value (shortened to “inhibition effect … (normalized RCT)”) in the experiment with H3N2 NA is recorded as “weak inhibition effect”.

`CCC(CC)[C@H](NC(C)=O)[C@@H]1[C@H](O)[C@@H](C(=O)O)C[C@H]1N=C(N)N` [Peramivir]: the “inhibition effect … (normalized RCT)” value in the experiment on H3N2 NA was “moderate inhibition effect”.

Take `CC(=O)N[C@H]1[C@H]([C@H](O)[C@H](O)CO)OC(C(=O)O)=C[C@@H]1N=C(N)N` [Zanamivir]: the “inhibition effect … (normalized RCT)” value in the experiment on H3N2 NA is listed as “strongest effect”.

The values are drawn from US20250236902A1 (priority 2022, published 2025).
